Measured values reported in patent publication US10456359B2, “Synergistic beverage composition” (Harsha Chigurupati, priority 2015, dated 2019).
Where a SMILES comes first, the peptide text is derived from it.

What was measured:
[1] = test system: acetylcholinesterase activity of brain homogenate; conditions: Pro: Protection (%), rats, alcohol 5 Day
Description: (§4) We have included this parameter to evaluate cognition and memory deficit in experimental animals.
(§5) Experimental Design • (b) Animal study model 1: Saline/Alcohol (4.0 gm/kg/day, p.o.)/Formulation with alcohol (4.0 gm/kg/day, p.o.) were administered (fed orally by orogastric cannula) for one day. 12-16 hours after the dose the animals were sacrificed and blood samples will be collected for estimation of biochemical parameters. Whole brain without cerebellum were dissected out, 10% homogenate was prepared with 0.1 M PB (pH 7.4). The homogenate solution was centrifuged at 10000 rpm for 20 minutes at 4° C. and the supernatant was used for estimation of acetylcholinesterase activity, which was estimated by Ellman's method (Ellman G L et al. A new and rapid colorimetric determination of acetylcholinesterase activity. Biochem Pharmacol, 1961, 7:88.) • (c) Animal study model 2: Saline/Alcohol (4.0 gm/kg/day, p.o.)/Formulation with alcohol (4.0 gm/kg/day, p.o.) were administered (fed orally by orogastric cannula) for 5 consecutive days. 12-16 hours after the last dose, the animals were sacrificed and blood samples were collected for estimation of biochemical parameters. Whole brain without cerebellum were dissected out, 10% homogenate was prepared with 0.1 M PB (pH 7.4). The homogenate solution was centrifuged at 10000 rpm for 20 minutes at 4° C. and the supernatant was used for estimation of acetylcholinesterase activity. […] The latency period of day 5 (before alcohol) was compared with post alcohol latency period (Vorhees C V and Williams M T. Morris water maze: procedures for assessing spatial and related forms of learning and memory, Nat Protoc, 2006, 1(2): 848-58.). % Protection Calculated in Above Experiments: % Protection=1−[(T−NS)/(AL−NS)]×100 T=Mean value of drug treated, NS=Mean value of normal control, AL=Mean value of alcohol alone.
(§6) Male Wistar albino rats weighing 150-200 g were procured and randomly divided into groups consisting of twelve (12) animals in each group. Alcohol induced hangover and CNS related biochemical changes and memory function in rats by oral administration of 30% alcohol (4 gm/kg/day, p.o.) for 1 and 5 days and this group served as the negative control and treated groups received different formulation.
(§7) All drug solutions were prepared in 40% aqueous alcohol, adjusting the pH in the range of 5.0-10.0 for evaluation of alcohol induced hangover and CNS related biochemical parameters.

[2] = test system: Monocyte chemoattractant protein-1 (MCP-1); experiment: Hangover study, serum MCP-1, alcohol 1 day; format: in vivo, Wistar albino rats; design: concentration or dose not given beside the values; conditions: 1 Day alcohol
Description: (§1) The lowest detectable limit of the kit is 0.1 ng/ml (Wang L, Li Y, Chen J, et al. “Ischemic Cerebral Tissue and MCP-1 Enhance Rat Bone Marrow Stromal Cell Migration in Interface Culture.” Experimental Hematology, 30, 7, 2002, 831-836).
(§2) For hangover, 1 day immunology parameter were considered and for CNS, 5 days immunology parameter were considered.

[3] = test system: serum C-reactive protein (CRP); experiment: CNS/immunology study, serum CRP, alcohol 5 days; format: in vivo, Wistar albino rats; conditions: Pro: Protection (%), rats, alcohol 5 Day
Source text: as §2

[4] = test system: interleukin-12 (IL-12) from brain homogenate; experiment: CNS study, IL-12 from brain homogenate, alcohol 5 days; format: in vivo, Wistar albino rats; conditions: rats, alcohol 5 Day; for Brain IL12 Pro: Pro: Protection (%)
[5] = test system: Interferon gamma (IFN-γ); experiment: CNS/immunology study, serum IFN-gamma, alcohol 5 days; format: in vivo, Wistar albino rats; conditions: Pro: Protection (%), rats, alcohol 5 Day
Source text: (§3) Distilled ethanol was obtained from Bengal Chemicals, West Bengal, India. Biochemical kits like AST, ALT, ALP and total protein were obtained from Span Diagnostics Ltd. Surat, India. Rat IL-12 ELISA kit (Elabscience Biotechnology Co. Ltd, WuHan, P.R.C.), Rat CRP ELISA kit (BD Biosciences, USA), Rat IFN-gamma ELISA kit (Biolegend, San Diego, Calif.) Rat MCP-1 ELISA kit (Elabscience Biotechnology Co. Ltd, WuHan, P.R.C.). All the chemicals used in the present study were of analytical grade and obtained from the following companies: Sigma (St. Louis, Mo., USA), Merck (Mumbai, India), S D fine chemicals (Mumbai, India) and Qualigen (Mumbai, India).
as §2

[6] = test system: interleukin-12 (IL-12); experiment: CNS/immunology study, serum IL-12, alcohol 5 days; format: in vivo, Wistar albino rats; conditions: Pro: Protection (%), rats, alcohol 5 Day
Source text: as §2

[7] = test system: acetylcholinesterase activity of brain homogenate; conditions: Hangover study, 1 Day alcohol; ingredient amounts in mass concentration (%)
Description: as §4, §5, §6, §7

[8] = test system: serum C-reactive protein (CRP); experiment: Hangover study, serum CRP, alcohol 1 day; format: in vivo, Wistar albino rats; conditions: 1 Day alcohol
Source text: as §2

[9] = test system: aspartate aminotransferase (AST); experiment: Hepatoprotection study, serum AST, alcohol 5 days; format: in vivo, Wistar albino rats; conditions: Pro: Protection (%), rats, alcohol 4 gm/kg/day p.o.
[10] = test system: interleukin-12 (IL-12) from brain homogenate; experiment: Hangover study, IL-12 from brain homogenate, alcohol 1 day; format: in vivo, Wistar albino rats; design: concentration or dose not given beside the values; conditions: 1 Day alcohol
[11] = test system: Interferon gamma (IFN-γ); experiment: Hangover study, serum IFN-gamma, alcohol 1 day; format: in vivo, Wistar albino rats; design: concentration or dose not given beside the values; conditions: 1 Day alcohol
Source text: as §3, §2

[12] = test system: serum alanine aminotransferase (ALT); experiment: Hepatoprotection study, serum ALT, alcohol 5 days; format: in vivo, Wistar albino rats; conditions: Pro: Protection (%), rats, alcohol 4 gm/kg/day p.o.
[13] = test system: Monocyte chemoattractant protein-1 (MCP-1) from brain homogenate; experiment: CNS study, MCP-1 from brain homogenate, alcohol 5 days; format: in vivo, Wistar albino rats; conditions: rats, alcohol 5 Day; for Brain MCP-1 Pro: Pro: Protection (%)
[14] = test system: Monocyte chemoattractant protein-1 (MCP-1); experiment: CNS/immunology study, serum MCP-1, alcohol 5 days; format: in vivo, Wistar albino rats; conditions: Pro: Protection (%), rats, alcohol 5 Day
Description: as §1, §2

[15] = test system: Monocyte chemoattractant protein-1 (MCP-1) from brain homogenate; experiment: Hangover study, MCP-1 from brain homogenate, alcohol 1 day; format: in vivo, Wistar albino rats; conditions: 1 Day alcohol
[16] = test system: spatial learning and memory; experiment: Morris water maze task (escape latency), alcohol 5 days; format: in vivo, Wistar albino rats; conditions: Pro: Protection (%), rats, alcohol 5 day
[17] = test system: alkaline phosphatase (ALP); conditions: Pro: Protection (%); rats, alcohol 4 gm/kg/day p.o., 5 days, serum
Description: The levels of alanine aminotransferase (ALT), aspartate aminotransferase (AST) and alkaline phosphatise (ALP) in serum were measured using commercial spectrophotometric kit bought from Span Diagnostic Ltd. (www.span.in) according to the manufacturer's protocols.
12-16 hours after the last dose, the animals were sacrificed and blood samples were collected for estimation of biochemical parameters.
Male Wistar albino rats weighing 150-200 g were procured and randomly divided into groups consisting of twelve (12) animals in each group. Hepatoprotection was induced by alcohol in rats by oral administration of 30% alcohol (4 gm/kg/day, p.o.) for 5 days and this group served as the negative control and treated groups received different formulation.
All drug solutions were prepared in 40% aqueous alcohol, adjusting the pH in the range of 5.0-10.0 for evaluation of alcohol induced Hepatoprotection. This solution was further diluted with distilled water to obtain 30% aqueous alcoholic solution and administered orally by gavage to different rats group of step (a).

[18] = test system: interleukin-12 (IL-12); experiment: Hangover study, serum IL-12, alcohol 1 day; format: in vivo, Wistar albino rats; design: concentration or dose not given beside the values; conditions: 1 Day alcohol
Source text: as §2

| Structure (SMILES) | ACHe Pro [1] | MCP-1 Pro (Protection) [2] | CRP Pro [3] | Brain IL12 Pro [4] | IFN-Gamma Pro [5] | IL12 Pro [6] | ACHe Pro (Protection) [7] | CRP Pro (Protection) [8] | AST Pro [9] | Brain IL12 Pro (Protection) [10] | IFN-Gamma Pro (Protection) [11] | ALT Pro [12] | Brain MCP-1 Pro [13] | MCP-1 Pro [14] | Brain MCP-1 Pro (Protection) [15] | WATER MAZE Pro [16] | ALP Pro [17] | IL12 Pro (Protection) [18] | Brain IL12 Syn ([4]; Syn: Synergism (%)) | Brain MCP-1 Syn ([13]; Syn: Synergism (%)) |
| --- | --- | --- | --- | --- | --- | --- | --- | --- | --- | --- | --- | --- | --- | --- | --- | --- | --- | --- | --- | --- |
| CC1(C(=O)O)CCC2(C)CCC3(C)C(=CC(=O)C4C5(C)CCC(OC6OC(C(=O)O)C(O)C(O)C6OC6OC(C(=O)O)C(O)C(O)C6O)C(C)(C)C5CCC43C)C2C1 (stereo not drawn) [0.1 GA, 18β-GA] | 9.4% | 3.79% | 5.19% | 3.66% | 0% | 5.85% | 11.79% | 5.15% | 8.25% | 3.16% | 2.58% | 4.24% | 3.58% | 0% | 4.25% | 5.32% | 6.29% | 2.6% |  |  |
| C/C=C/C=C/C(=O)[O-].[K+] [0.1 KS, Potassium Sorbate] | 0% | 0.16% | 0.87% | 0.00% | 0% | 1.2% | 0.24% | 1.2% | 0.09% | 0.24% | 0.11% | 0.11% | 0% | 1.04% | 0.19% | 1.31% | 0% | 0.89% | 0% | 0% |
| CC1(C(=O)O)CCC2(C)CCC3(C)C(=CC(=O)C4C5(C)CCC(OC6OC(C(=O)O)C(O)C(O)C6OC6OC(C(=O)O)C(O)C(O)C6O)C(C)(C)C5CCC43C)C2C1 (stereo not drawn) [0.3 GA, 18β-GA] | 21.5% | 13.97% | 15.63% | 15.63% | 23.18% | 10.07% |  | 11.21% | 20.46% |  | 7.85% | 25.62% | 21.36% | 15.46% | 18.92% | 15.57% | 11.68% |  |  |  |
| OC[C@@H](O)[C@@H](O)[C@H](O)[C@H](O)CO [0.5 Man, D-Mannitol] | 5.22% | 3.27% |  |  |  |  | 4.12% |  | 4.28% | 4.25% | 3.51% | 3.59% | 2.75% |  |  | 4.95% | 4.78% | 3.59% |  |  |
| C[C@H](N)C(=O)N[C@@H](CCC(N)=O)C(=O)O [1 DP, L-Ala-L-Gln] (H-Ala-Gln-OH) | 3.91% | 20.74% | 6.33% | 10.30% | 8.89% | 16.44% |  | 31.3% | 15.68% | 10.53% | 12.25% | 13.4% |  | 7.14% | 3.58% | 22.38% | 18.96% | 6.13% |  |  |
| OC[C@@H](O)[C@@H](O)[C@H](O)[C@H](O)CO [1.2 Man, D-Mannitol] | 17.58% | 11.85% |  | 13.92% |  |  | 21.54% | 8.68% | 22% | 12.28% | 7.79% | 23.19% | 14.28% |  | 21.28% | 12.84% | 24.48% | 13.45% |  |  |
| C[C@H](N)C(=O)N[C@@H](CCC(N)=O)C(=O)O [1.5 DP, L-Ala-L-Gln] (H-Ala-Gln-OH) | 15.29% | 11.04% | 11.97% |  |  | 22.53% | 21.14% | 26.13% | 20.25% | 18.26% | 20.58% | 14.68% |  | 11.01% | 14.96% | 24.53% | 22.35% | 20.11% |  |  |
| C[C@H](N)C(=O)N[C@@H](CCC(N)=O)C(=O)O [1.25 DP, L-Ala-L-Gln] (H-Ala-Gln-OH) | 9.7% | 14.22% |  | 15.82% | 13.09% | 22.71% | 20.33% | 10.61% | 22% | 7.02% | 10.44% | 17.59% |  | 8.14% | 17.02% | 10.36% | 22.73% |  |  |  |
| C[C@H](N)C(=O)N[C@@H](CCC(N)=O)C(=O)O [2.0 DP, L-Ala-L-Gln] (H-Ala-Gln-OH) | 36.85% | 21.43% | 27.24% |  | 22.91% | 29.54% | 31.79% | 33.14% | 30.72% | 26.34% | 25.96% | 38.83% | 24.36% | 19.16% | 23.54% | 50.36% | 28.68% | 31.9% |  |  |
| OC[C@@H](O)[C@@H](O)[C@H](O)[C@H](O)CO [2.5 Man, D-Mannitol] | 30.61% |  |  | 28.33% |  |  | 45.12% | 18.33% | 42.57% | 23.16% | 18.22% | 38.4% | 24.65% |  | 27.66% | 25.4% | 34.75% | 21.4% |  |  |
| C[C@H](N)C(=O)N[C@@H](CCC(N)=O)C(=O)O [3 DP, L-Ala-L-Gln] (H-Ala-Gln-OH) | 59.25% | 29.69% | 27.59% | 27.57% | 30.24% | 32.6% | 59.25% | 41.82% | 32.95% |  | 31.08% | 29.7% |  | 13.51% |  | 59.17% | 29.08% | 30.98% |  |  |
